Reference: US7420056B2, “Substituted bicyclic imidazo-3-ylamine compounds” (Gruenenthal GmbH, priority 2004, dated 2008)
Structures can show the parent of a compound that is named as a salt. Where two headings read alike, the source gives them in different places.

Legend:
Mouse = assay: Formaldehyde test in mice; type: in vivo
Rat = assay: Formaldehyde test (rat), phase 2; type: in vivo
mGluR5 receptor = mGluR5 receptor (Sus scrofa, UniProt I3LUI7); assay: Affinity for the mGluR5 receptor: inhibition of 3[H]-MPEP binding in pig brain homogenate; conditions: 3[H]-MPEP binding
Sequence of mGluR5 receptor (I3LUI7 19-1212): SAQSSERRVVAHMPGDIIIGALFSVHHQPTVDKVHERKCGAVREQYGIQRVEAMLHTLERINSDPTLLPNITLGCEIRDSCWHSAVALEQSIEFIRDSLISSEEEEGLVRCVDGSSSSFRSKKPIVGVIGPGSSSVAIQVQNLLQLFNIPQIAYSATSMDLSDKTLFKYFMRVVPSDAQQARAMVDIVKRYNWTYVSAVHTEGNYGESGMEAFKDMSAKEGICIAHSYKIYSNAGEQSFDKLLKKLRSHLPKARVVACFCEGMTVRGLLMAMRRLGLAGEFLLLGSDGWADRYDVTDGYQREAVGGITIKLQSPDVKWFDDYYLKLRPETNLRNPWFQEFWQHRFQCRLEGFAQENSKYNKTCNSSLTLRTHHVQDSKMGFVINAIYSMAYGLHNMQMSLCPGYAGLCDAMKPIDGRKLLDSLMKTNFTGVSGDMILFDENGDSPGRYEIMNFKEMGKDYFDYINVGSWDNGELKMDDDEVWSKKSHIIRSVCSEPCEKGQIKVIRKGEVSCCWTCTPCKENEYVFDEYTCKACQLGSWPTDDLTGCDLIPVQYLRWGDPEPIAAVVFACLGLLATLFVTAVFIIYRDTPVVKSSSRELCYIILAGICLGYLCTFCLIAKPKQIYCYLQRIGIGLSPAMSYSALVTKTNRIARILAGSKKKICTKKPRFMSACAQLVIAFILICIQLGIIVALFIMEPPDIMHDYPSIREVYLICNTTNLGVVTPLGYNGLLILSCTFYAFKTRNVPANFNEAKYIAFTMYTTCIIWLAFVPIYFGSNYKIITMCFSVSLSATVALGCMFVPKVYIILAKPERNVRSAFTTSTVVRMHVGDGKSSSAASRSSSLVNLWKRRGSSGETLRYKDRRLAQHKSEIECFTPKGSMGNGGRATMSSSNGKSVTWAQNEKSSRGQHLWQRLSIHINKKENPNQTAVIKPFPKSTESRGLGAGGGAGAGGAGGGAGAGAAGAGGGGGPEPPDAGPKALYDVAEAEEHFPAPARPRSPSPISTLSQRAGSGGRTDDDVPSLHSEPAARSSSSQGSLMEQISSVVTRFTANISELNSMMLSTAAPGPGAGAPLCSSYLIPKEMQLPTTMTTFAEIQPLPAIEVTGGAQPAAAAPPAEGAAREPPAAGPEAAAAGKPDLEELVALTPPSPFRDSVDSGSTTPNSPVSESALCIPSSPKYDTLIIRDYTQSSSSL
Summary of the method: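 Test compounds were screened at 10 μM for displacement of 5 nM [3H]-MPEP from pig brain homogenate (450 μg protein, pH 8.0 Hepes buffer) over 60 min at room temperature. After filtration, scintillation counting gave the read-out. 10 μM unlabelled MPEP set nonspecific binding.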

male Sprague-Dawley rats = assay: Elevated plus maze (EPM) model, anxiolytic effect; type: in vivo; conditions: rat, 60 min after p.o. administration, in words
Protocol: 3. “Elevated Plus Maze” Model
Compounds are tested for a possible anxiolytic effect in the “elevated plus maze” (EPM) model. The tests are carried out on male Sprague-Dawley rats (200-250 g) using 2 “elevated plus mazes” (Med Associates) with electronically controlled infrared photobeams for determining the location of the animals in the maze. Each maze has 2 open and 2 closed arms and a central platform. The edges of the open arms are delimited by narrow strips. The entire maze is mounted on a metal stand.
At the beginning of a 5 minute test, each animal is individually placed on the central platform with its head in the direction of a closed arm.
The following parameters are determined or calculated and evaluated:
the number and percentage of entries into the open and closed arms,
and the percentage of time spent in the open and closed arms and on the central platform.
The data are analysed by means of single factor ANOVA (comparison of treatment groups vs. vehicle group). The significance level is set at p<0.05. All groups have a size of N=10.
The test is also described in Hogg, S. (1996) A review of the validity and variability of the elevated plus-maze as an animal model of anxiety. Pharmacol. Biochem. Behav. 54, 21-30 and Rodgers, R. J., Cole, J. C. (1994) The elevated plus-maze: pharmacology, methodology and ethology, in: Cooper, S. J., Hendrie, C. […]

[1] = test system: neuropathic pain in rats (cold allodynia); assay: Neuropathic pain in rats, Bennett model (chronic constriction injury), cold allodynia; type: in vivo; conditions: rat, p.o., in words
Excerpt: 2. Neuropathic Pain in Rats Efficacy against neuropathic pain was investigated in the Bennett model (chronic constriction injury; Bennett and Xie, 1988, Pain 33: 87-107). The corresponding parts of the literature are hereby deemed to be part of the present disclosure. Sprague-Dawley rats weighing 140-160 g are provided under Nembutal anaesthesia with four loose ligatures of the right ischial nerve. On the paw innervated by the damaged nerve, the animals develop hypersensitivity which, after one week's convalescence, is quantified over a period of approx. four weeks by means of a cold metal plate at 4° C. (cold allodynia). The animals are observed on this plate for a period of 2 min. and the number of withdrawal responses by the damaged paw is measured. […] The significance of an antiallodynic action is determined with reference to the AUC values by means of a paired T-test (*0.05≧p>0.01; **0.01≧p>0.001; ***p≦0.001; Armitage and Berry, 1987, Stat. Methods in Medical Research, London: Blackwell Scientific Publications).

[2] = ip, read-out: ED50 value, Mouse i.p.
[3] = ip, read-out: ED50 value, Rat i.p.
[4] = po, read-out: ED50 value, Rat p.o.

IC50 (mGluR5 receptor) [nM]	Compound	ED50 (Mouse; [2]) [mg/kg]	ED50 (Rat; [3]) [mg/kg]	ED50 (Rat; [4]) [mg/kg]	other results
5.4	CC(C)(C)Nc1c(-c2ccc(C#Cc3ccccn3)s2)nc2cnccn12.Cl [Example 91, N-tert-butyl-2-(5-(pyridin-2-ylethynyl)thiophen-2-yl)imidazo[1,2-a]pyrazin-3-amine hydrochloride]	1.2	4.7	7.3	ED50 (Mouse; po, read-out: ED50 value, Mouse p.o.): 2.3 mg/kg
49	CC(C)(C)Nc1c(-c2ccc(C#Cc3cccs3)s2)nc2cnccn12.Cl [Example 110, N-tert-butyl-2-(5-(thiophen-2-ylethynyl)thiophen-2-yl)imidazo[1,2-a]pyrazin-3-amine hydrochloride]				% inhibition, Rat p.o. (Rat; p.o., at 21.5 mg/kg): 61% at 21.5
76	CC(C)(C)Nc1c(-c2ccc(C#Cc3ccccn3)cc2)nc2cnccn12 [Example 116, N-tert-butyl-2-(4-(pyridin-2-ylethynyl)phenyl)imidazo[1,2-a]pyrazin-3-amine]	15.2			
8.4	CC(C)(C)Nc1c(-c2ccc(C#Cc3ccncc3)s2)nc2cnccn12.Cl [Example 127, N-tert-butyl-2-(5-(pyridin-4-ylethynyl)thiophen-2-yl)imidazo[1,2-a]pyrazin-3-amine hydrochloride]	7.7	2.2	5.9	
	CC(C)(C)Nc1c(-c2ccc(C#Cc3ccccn3)s2)nc2ccccn12.Cl [Example 192, N-tert-butyl-2-(5-(pyridin-2-ylethynyl)thiophen-2-yl)imidazo[1,2-a]pyridin-3-amine hydrochloride]				anxiolytic effect (male Sprague-Dawley rats): dose-dependent anxiolytic effect; antiallodynic action [1]: pronounced, long-lasting antiallodynic action
230	Cc1cccnc1C#Cc1ccc(-c2nc3ccccn3c2NC(C)(C)C)s1 [Example 351, N-tert-butyl-2-(5-((3-methylpyridin-2-yl)ethynyl)thiophen-2-yl)imidazo[1,2-a]pyridin-3-amine hydrochloride]				
